Where only a bound is given, the exact number is not on record here.

This assay relates to Human peripheral blood mononuclear cells (PBMC). The assay can be described thus: TNFalfa-Release. In kind it is cell-based. The settings on record: inhibition of TNF-a secretion, PBMC pre-incubated 30 minutes, stimulated 18 hours with lipopolysaccharide. As to the method: Human peripheral blood mononuclear cells (PBMC) are Isolated from buffy coats. The blood is mixed with saline at a ratio of 1:1, and the PBMC is isolated by the use of Lymphoprep Tubes™ (Nycomed, Norway). The PBMC is suspended in RPMI1640 with 2% foetal calf serum (FCS), pen/strep and 2 mM L-glutamine at a concentration of 5×105 c/ml. The cells are pre-incubated for 30 minutes with the test compounds in 96 well tissue culture plates and stimulated for 18 hours with lipopolysaccharide 1 mg/ml (Sigma). The level of TNF-a is measured in the culture supernatant by enzyme immuno assays using primary and secondary biotinylated antibodies from R&D systems. Results are expressed as pIC50 values calculated from inhibition curves using as positive controls the secretion in LPS stimulated wells and as negative controls the secretion in unstimulated cells.
`COc1ccc(C(=O)Cc2c(Cl)cncc2Cl)c(OCC(=O)NC[C@@H](O)c2ccccc2)c1OC` [Compound 253, (S)-2-{6-[2-(3,5-Dichloro-pyridin-4-yl)-acetyl]-2,3-dimethoxy-phenoxy}-N-(2-hydroxy-2-phenyl-ethyl)-acetamide]: the IC50 (usually the concentration that inhibits the measured activity by half) was below 1000 nM.
For `COc1ccc(C(=O)Cc2c(Cl)cncc2Cl)c(OCCc2ccc(C)cc2)c1OC` [Compound 123, 2-(3,5-Dichloro-pyridin-4-yl)-1-[3,4-dimethoxy-2-(2-p-tolyl-ethoxy)-phenyl]-ethanone], the IC50 is below 1000 nM.
The compound `COc1ccc(C(=O)Cc2c(Cl)cncc2Cl)c(OCCCOc2ccccc2)c1OC` [Compound 145, 2-(3,5-Dichloro-pyridin-4-yl)-1-[3,4-dimethoxy-2-(3-phenoxy-propoxy)-phenyl]-ethanone] had an IC50 below 1000 nM.
On to `COc1ccc(C(=O)Cc2c(Cl)cncc2Cl)c(OCC(C)C)c1OC` [Compound 141, 2-(3,5-Dichloro-pyridin-4-yl)-1-(2-isobutoxy-3,4-dimethoxy-phenyl)-ethanone], for which the 50% inhibitory concentration (IC50) is below 1000 nM.
Take `COc1ccc(C(=O)Cc2c(Cl)cncc2Cl)c(O)c1OC` [Compound 101, 2-(3,5-Dichloro-pyridin-4-yl)-1-(2-hydroxy-3,4-dimethoxy-phenyl)-ethanone]: the IC50 was below 1000 nM.
In turn, `COc1ccccc1CNC(=O)COc1c(C(=O)Cc2c(Cl)cncc2Cl)ccc(OC)c1OC` [Compound 218, 2-{6-[2-(3,5-Dichloro-pyridin-4-yl)-acetyl]-2,3-dimethoxy-phenoxy}-N-(2-methoxy-benzyl)-acetamide] had an IC50 below 1000 nM.
The value for `COc1ccc(C(=O)Cc2c(Cl)cncc2Cl)c(OCCc2ccc(F)cc2)c1OC` [Compound 129, 2-(3,5-Dichloro-pyridin-4-yl)-1-{2-[2-(4-fluoro-phenyl)-ethoxy]-3,4-dimethoxy-phenyl}-ethanone] was below 1000 nM; that for `COc1ccc(C(=O)Cc2c(Cl)cncc2Cl)c(OCC(=O)NCC2CCCCC2)c1OC` [Compound 219, N-Cyclohexylmethyl-2-{6-[2-(3,5-dichloro-pyridin-4-yl)-acetyl]-2,3-dimethoxy-phenoxy}-acetamide] was below 1000 nM.
`CCCNC(=O)COc1c(C(=O)Cc2ccnc3ccccc23)ccc(OC)c1OC` [Compound 290] had an IC50 below 1000 nM.
The value for `COc1ccc(C(=O)Cc2c(Cl)cncc2Cl)c(OCc2ncon2)c1OC` [Compound 118, 2-(3,5-Dichloro-pyridin-4-yl)-1-[3,4-dimethoxy-2-([1,2,4]oxadiazol-3-ylmethoxy)-phenyl]-ethanone] was below 1000 nM.
In the case of `CCCNC(=O)COc1c(C(=O)Cc2c(Cl)cncc2Cl)ccc(OC)c1OC` [Compound 208, 2-{6-[2-(3,5-Dichloro-pyridin-4-yl)-acetyl]-2,3-dimethoxy-phenoxy}-N-propyl-acetamide] it was below 1000 nM.
As to `COc1ccc(C(=O)Cc2c(Cl)cncc2Cl)c(OCCc2ccncc2)c1OC` [Compound 277, 2-(3,5-Dichloro-pyridin-4-yl)-1-[3,4-dimethoxy-2-(2-pyridin-4-yl-ethoxy)-phenyl]-ethanone], the IC50 is below 1000 nM.
In the case of `CCOC(=O)COc1c(C(=O)Cc2c(Cl)cncc2Cl)ccc(OC)c1OC` [Compound 119, {6-[2-(3,5-Dichloro-pyridin-4-yl)-acetyl]-2,3-dimethoxy-phenoxy}-acetic acid ethyl ester] it was below 1000 nM; in that of `C=CCOc1c(OC)ccc(C(=O)Cc2c(Cl)cncc2Cl)c1O` [Compound 266, 1-(3-Allyloxy-2-hydroxy-4-methoxy-phenyl)-2-(3,5-dichloro-pyridin-4-yl)-ethanone], below 1000 nM.
`COc1ccc(C(=O)Cc2c(Cl)cncc2Cl)c(OCC(=O)NCc2cccc(Cl)c2)c1OC` [Compound 246, N-(3-Chloro-benzyl)-2-{6-(2-(3,5-dichloro-pyridin-4-yl)-acetyl)-2,3-dimethoxy-phenoxy}-acetamide] showed an IC50 below 1000 nM.
In the case of `CCCCNC(=O)COc1c(C(=O)Cc2c(Cl)cncc2Cl)ccc(OC)c1OC` [Compound 210, N-Butyl-2-{6-[2-(3,5-dichloro-pyridin-4-yl)-acetyl]-2,3-dimethoxy-phenoxy}-acetamide] it was below 1000 nM; in that of `CC#CCOc1c(C(=O)Cc2c(Cl)cncc2Cl)ccc(OC)c1OC` [Compound 110, 1-(2-But-2-ynyloxy-3,4-dimethoxy-phenyl)-2-(3,5-dichloro-pyridin-4-yl)-ethanone], below 1000 nM.
Take `COc1ccc(C(=O)Cc2c(Cl)cncc2Cl)c(OCC(=O)NC[C@H](O)c2ccccc2)c1OC` [Compound 252, (R)-2-{6-[2-(3,5-Dichloro-pyridin-4-yl)-acetyl]-2,3-dimethoxy-phenoxy}-N-(2-hydroxy-2-phenyl-ethyl)-acetamide]: the IC50 is below 1000 nM.
Consider `COc1ccc(C(=O)Cc2c(Cl)cncc2Cl)c(OCC(=O)NC2c3ccccc3C[C@H]2O)c1OC` (stereo partly drawn) [Compound 256, (2R)-2-{6-[2-(3,5-Dichloro-pyridin-4-yl)-acetyl]-2,3-dimethoxy-phenoxy}-N-(2-hydroxy-indan-1-yl)-acetamide], for which the IC50 was below 1000 nM.
`COc1ccc(C(=O)Cc2c(Cl)cncc2Cl)c(OCC(=O)NCCCO)c1OC` [Compound 222, 2-{6-[2-(3,5-Dichloro-pyridin-4-yl)-acetyl]-2,3-dimethoxy-phenoxy}-N-(3-hydroxy-propyl)-acetamide] showed an IC50 below 1000 nM.
As to `COc1ccc(C(=O)Cc2c(Cl)cncc2Cl)c(OCC(=O)NCC2CCCCCC2)c1OC` [Compound 257, N-Cycloheptylmethyl-2-{6-[2-(3,5-dichloro-pyridin-4-yl)-acetyl]-2,3-dimethoxy-phenoxy}-acetamide], the half-inhibitory concentration (IC50) is below 1000 nM.
In the case of `C=CCCOc1c(C(=O)Cc2c(Cl)cncc2Cl)ccc(OC)c1OC` [Compound 137, 1-(2-But-3-enyloxy-3,4-dimethoxy-phenyl)-2-(3,5-dichloro-pyridin-4-yl)-ethanone] it was below 1000 nM.
In the case of `COc1ccc(C(=O)Cc2c(Cl)cncc2Cl)c(OCC(N)=O)c1OC` [Compound 184, 2-{6-[2-(3,5-Dichloro-pyridin-4-yl)-acetyl]-2,3-dimethoxy-phenoxy}-acetamide] it was below 1000 nM.
The value for `COc1ccc(C(=O)Cc2c(Cl)cncc2Cl)c(OCc2ccc(C#N)cc2)c1OC` [Compound 148, 4-{6-[2-(3,5-Dichloro-pyridin-4-yl)-acetyl]-2,3-dimethoxy-phenoxymethyl}-benzonitrile] was below 1000 nM; that for `COc1ccc(C(=O)Cc2c(Cl)cncc2Cl)c(OCC(=O)c2ccc3ccccc3c2)c1OC` [Compound 157, 2-(3,5-Dichloro-pyridin-4-yl)-1-[3,4-dimethoxy-2-(2-naphthalen-2-yl-2-oxo-ethoxy)-phenyl]-ethanone] was below 1000 nM; that for `COc1ccc(C(=O)Cc2c(Cl)cncc2Cl)c(OCC(=O)NCc2cccnc2)c1OC` [Compound 230, 2-{6-[2-(3,5-Dichloro-pyridin-4-yl)-acetyl]-2,3-dimethoxy-phenoxy}-N-pyridin-3-ylmethyl-acetamide] was below 1000 nM.
`CCOC(=O)CCCOc1c(C(=O)Cc2c(Cl)cncc2Cl)ccc(OC)c1OC` [Compound 142, 4-{6-[2-(3,5-Dichloro-pyridin-4-yl)-acetyl]-2,3-dimethoxy-phenoxy}-butyric acid ethyl ester]: the IC50 was below 1000 nM.
As to `COc1ccc(C(=O)Cc2c(Cl)cncc2Cl)c(O)c1OC1CCCC1` [Compound 260, 1-(3-Cyclopentyloxy-2-hydroxy-4-methoxy-phenyl)-2-(3,5-dichloro-pyridin-4-yl)-ethanone], the IC50 was below 1000 nM.
Compound `COc1ccc(C(=O)Cc2c(Cl)cncc2Cl)c(OCC(=O)NCCN(C)C)c1OC` [Compound 224, 2-{6-[2-(3,5-Dichloro-pyridin-4-yl)-acetyl]-2,3-dimethoxy-phenoxy}-N-(2-dimethylamino-ethyl)-acetamide] showed a half-inhibitory concentration (IC50) below 1000 nM.
As for `COc1ccc(C(=O)Cc2c(Cl)cncc2Cl)c(OCC(=O)N(C)c2ccccc2)c1OC` [Compound 206, 2-{6-[2-(3,5-Dichloro-pyridin-4-yl)-acetyl]-2,3-dimethoxy-phenoxy}-N-methyl-N-phenyl-acetamide], the IC50 was below 1000 nM.
In the case of `COc1cccc(CCOc2c(C(=O)Cc3c(Cl)cncc3Cl)ccc(OC)c2OC)c1` [Compound 125, 2-(3,5-Dichloro-pyridin-4-yl)-1-{3,4-dimethoxy-2-[2-(3-methoxy-phenyl)-ethoxy]-phenyl}-ethanone] it was below 1000 nM; in that of `COc1ccc(C(=O)Cc2c(Cl)cncc2Cl)c(OCC(=O)NCc2cccc(F)c2F)c1OC` [Compound 235, 2-{6-[2-(3,5-Dichloro-pyridin-4-yl)-acetyl]-2,3-dimethoxy-phenoxy}-N-(2,3-difluoro-benzyl)-acetamide], below 1000 nM; in that of `CCCNC(=O)COc1c(C(=O)Cc2c(Cl)cccc2Cl)ccc(OC)c1OC` [Compound 288, 2-{6-[2-(2,6-Dichloro-phenyl)-acetyl]-2,3-dimethoxy-phenoxy}-N-propyl-acetamide], below 1000 nM.
The value for `COc1ccc(C(=O)Cc2c(Cl)cncc2Cl)c(OCC(=O)N2CCCC2)c1OC` [Compound 202, 2-(3,5-Dichloro-pyridin-4-yl)-1-[3,4-dimethoxy-2-(2-oxo-2-pyrrolidin-1-yl-ethoxy)-phenyl]-ethanone] was below 1000 nM.
In the case of `CCc1ccc(CNC(=O)COc2c(C(=O)Cc3c(Cl)cncc3Cl)ccc(OC)c2OC)cc1` [Compound 233, 2-{6-[2-(3,5-Dichloro-pyridin-4-yl)-acetyl]-2,3-dimethoxy-phenoxy}-N-(4-ethyl-benzyl)-acetamide] it was below 1000 nM.

These data come from patent US8497380B2, “Substituted acetophenones useful as PDE4 inhibitors” (Leo Pharma A/S, priority 2006, dated 2013).
